Experimental data as given in EP1015457B1, “1,3-DIOXOLO/4,5-H//2,3/BENZODIAZEPINE DERIVATIVES AS AMPA/KAINATE RECEPTOR INHIBITORS” (EGIS GYOGYSZERGYAR RT., priority 1997, dated 1999).
Where two headings read alike, the source gives them in different places.

Key:
male NMRI mice [1] = experiment: Muscle relaxant effect, 60° inclined screen according to Hoppe; type: in vivo; conditions: for ED50: Mus musculus, determined at the time of maximal effect; for ED50 / Muscle relaxant effect duration: ip.; for ED50 / Muscle relaxant effect duration / muscle relaxant effect in the inclined screen: mice; for Muscle relaxant effect duration: time of last reading when the effect was at least 30 %; for muscle relaxant effect in the inclined screen: 60 mg/kg dose
Protocol: The assay was done according to Hoppe in male NMRI mice weighing 20 to 25 g, with 10 animals in each group /Hoppe, J.O., J . Pharmacol. Exp. Ther., 100, 333 (1950)/. Following the ip. treatment of animals, the number of mice showing muscle weakness were recorded at every 10 minutes in the first hour and at half hour intervals afterwards. The animals falling off the 60° inclined screen within 30 seconds were considered positive. ED50 values of the given compounds were determined at each time. The duration of effect was defined as the time of last reading when the effect was at least 30 %.

male NMRI mice [2] = experiment: Maximal electroshock test (MES); type: in vivo; conditions: Mus musculus, 0.5 h, ip., inhibition of maximal electroshock, 30 minutes after treatment
Protocol: Maximal electroshock test (MES)
Male NMRI mice weighing 20 to 30 g were used for the method of Swinyard et al. /Swinyard, E.A., Brown, W.C. and Goodman, L.S.: Comparative assays of antiepileptic drugs in mice and rats, J. Pharmacol., 106, 319 (1952)/. The animals, 10 in each group, were treated ip. either with various doses of the test substance or with vehicle. After 30 minutes, a 50 Hz, 40 mA electroshock was applied for 0.4 s through corneal electrodes. The number of animals that developed tonic extensor convulsion of the hind-limbs was registered, percent inhibition was calculated, and ED50 values were determined by the method of Litchfield and Wilcoxon /Litchfield, J.T., Wilcoxon, F.A.: A simplified method of evaluating dose-effect experiments, J. Pharmacol. Exp. Ther., 96, 99 (1949)/ and summarized in Table III.

male NMRI mice [3] = experiment: Global ischemia induced by magnesium chloride (gasping time); type: in vivo; conditions: for Effect in % (increase in gasping time): Dose 30 mg/kg ip., magnesium chloride iv. after 30 minutes; for ID50: ip., gasping time, calculated by linear regression
Protocol: Global ischemia induced by magnesium chloride
The experiments were carried out as described by Berga et al. /Berga, P., Beckett, P.R., Roberts, D.J., Llenas, J., Massingham, R.: Synergistic interactions between piracetam and dihydroergocristine in some animal models of cerebral hypoxia and ischemia, Arzneim.--Forsch., 36, 1314-1320 (1986)/. Groups of 10 male NMRI mice weighing 20 to 25 g were treated ip. with the test substance in […]. After 30 minutes, saturated aqueous magnesium chloride solution was applied iv. (5 ml/kg) resulting in an immediate cardiac arrest. The elapsed time between the iv. injection and the last gasping was measured (gasping time). The means of the treated groups were expressed as percent of control. Statistical analysis was done by ANOVA followed by DUNCAN test. The dose resulting in 50 % descrease in gasping time (ID50) was calculated by linear regression.

[4] = tested on: isolated retinal preparation of the chicken; experiment: SD (spreading depression) test, evoked by kainate; type: cell-based; conditions: Gallus gallus, chicken retina
Source text: SD (spreading depression) test
The method is based on the phenomenon of spreading depression evoked by kainate in isolated retinal preparation of the chicken. The formation of spreading depression is inhibited (delayed) by AMPA/kainate antagonists. /Sheardown M.J.: The triggering of spreading depression in the chicken retina: a pharmacological study, Brain Res., 607(1-2), 189-194 (1993)/.

male DBA/2j strain mice = experiment: Audiogenic seizure (AS) test; type: in vivo; conditions: Mus musculus, ip., DBA/2j mice, inhibition of sound induced seizure
Protocol: Audiogenic seizure (AS) test
The experiments were carried out by the slightly modified method of De Sarro et al. /De Sarro, G.B., Croucher, M.J. and Meldrum, B.S.: Anticonvulsant action of DS 103-282, Neuropharm., 23, 525 (1984)/. Groups of 8 male DBA/2j strain mice weighing 7 to 14 g were treated ip. with the test substance in 10 ml/kg volume. 15 minutes later, the animals were placed into a covered glass container (30 cm in diameter) and exposed to a 14 kHz 120 dB tone for 60 s at the most. Seizure response was assessed using the following scale: 0 = normal behaviour, 1 = wild running, 2 = clonus, 3 = tonic flexor seizure, 4 = tonic extensor seizure. The maximum response during the 60 s exposure was recorded for each animal. Lethality was also noted. The ED50 values were determined by the method of Litchfield and Wilcoxon concerning the inhibition of clonic seizures and tonic extensor convulsions.

[5] = tested on: CAl neurones of rat hippocampus; experiment: PSI (inhibition of population spike) test; type: cell-based; conditions: electric stimulation of Shaffer collateral comissural pathway
Protocol: PSI (inhibition of population spike) test
The field potentials (population spike) evoked by electric stimulation of the Shaffer collateral comissural pathway were measured in the CAl neurones of rat hippocampus. The population spike can be inhibited by AMPA/kainate antagonists. The non-cumulative IC50 values are shown in Table I. /Tarnawa, I., Molnár, P., Gaál, L., Andrási, F.: Inhibition of hippocampal field potentials by GYKI 52466 in vitro and in vivo, Acta Physiol. Hung., 79(2), 163-9 (1992)/.

[6] = clonic seizures, read-out: AS ED50 clonic convulsion
[7] = tonic extensor convulsions, read-out: AS ED50 tonic convulsion

Row | SMILES | ED50 (male NMRI mice [1]) | Muscle relaxant effect duration (male NMRI mice [1]) | ED50 (male NMRI mice [2]) | Effect in % (increase in gasping time) (male NMRI mice [3]) | ID50 (male NMRI mice [3]) | IC50 [4] | ED50 (male DBA/2j strain mice; [6]) | ED50 (male DBA/2j strain mice; [7]) | Percent inhibition of population spike (10 micron) [5] | muscle relaxant effect in the inclined screen (male NMRI mice [1]) | muscle relaxant effect (male NMRI mice [1]; at about 4.5 times higher dose than the anticonvulsive ED50 (6.9 mg/kg))
1 | CC1Cc2cc3c(cc2C(c2ccc(N)cc2)=NN1C(=O)NC1CC1)OCO3 (racemic) [Example 2, (±)-5-(4-Aminophenyl)-7-(N-cyclopropylcarbamoyl)-7,8-dihydro-8-methyl-9H-1,3--dioxolo/4,5-h//2,3/benzodiazepine] | 21.1 mg/kg | higher than 2 hr | 4.6 mg/kg | 61% | 13 mg/kg | 1.3 µM | 2.5 mg/kg | 1.6 mg/kg | 100% | – | –
2 | CONC(=O)N1N=C(c2ccc(N)cc2)c2cc3c(cc2CC1C)OCO3 (racemic) [Example 3, (±)-5-(4-Aminophenyl)-7,8-dihydro-8-methyl--7-(N-methoxycarbamoyl)-9H-1,3-dioxolo/4,5-h//2,3/benzodiazepine] | 18.1 mg/kg | 4 h | 3.7 mg/kg | 52% | 27 mg/kg | 1.5 µM | – | – | 95% | – | –
3 | CC1Cc2cc3c(cc2C(c2ccc(N)cc2)=NN1C(=O)NN)OCO3 (racemic) [Example 4, (±)-5-(4-Aminophenyl)-7-(N-aminocarbamoyl)--7,8-dihydro-8-methyl-9H-1,3-dioxolo/4,5-h//2,3/benzodiazepine] | – | – | – | – | – | – | – | – | 95% | – | –
4 | CC1=NN=C(c2ccc(N)cc2)c2cc3c(cc2C1)OCO3 [A, 8-Methyl-5--(4-aminophenyl)-9H-1,3-dioxolo/4,5-h//2,3/benzodiazepine, reference compound] | 24.5 mg/kg | 1 h | 6.9 mg/kg | 55% | 30 mg/kg | 9.5 µM | 4.3 mg/kg | 3.6 mg/kg | 58% | all the treated animals showed muscle relaxation | about 50%
5 | CC1=Cc2cc3c(cc2C(c2ccc(N)cc2)=NN1C(=O)NCCN1CCOCC1)OCO3 [Example 6, 5-(4-Aminopheayl)-8-methyl-7H-1,3-dioxolo/4,5-h//2,3/benzodiazepine-7-carboxylic acid-(2-morpholino-4-ylethyl)amide] | – | – | ~10 mg/kg | – | – | 6.5 µM | – | – | – | no muscle relaxant effect | –
6 | CNC(=O)N1N=C(c2ccc(N)cc2)c2cc3c(cc2C=C1C)OCO3 [Example 11, 5-(4-Aminophenyl)-8-methyl-7-methylcarbamoyl-7H-1,3-dioxolo/4,5-h//2,3/benzodiazepine] | – | – | – | – | – | 2.8 µM | – | – | – | – | –
